Target: T1, CETP (Homo sapiens, UniProt P11597)
T1 construct: tissue New Drug Development Research Center, Inc; host or cells: human EDTA plasma from healthy men
T1 sequence (P11597 18-493): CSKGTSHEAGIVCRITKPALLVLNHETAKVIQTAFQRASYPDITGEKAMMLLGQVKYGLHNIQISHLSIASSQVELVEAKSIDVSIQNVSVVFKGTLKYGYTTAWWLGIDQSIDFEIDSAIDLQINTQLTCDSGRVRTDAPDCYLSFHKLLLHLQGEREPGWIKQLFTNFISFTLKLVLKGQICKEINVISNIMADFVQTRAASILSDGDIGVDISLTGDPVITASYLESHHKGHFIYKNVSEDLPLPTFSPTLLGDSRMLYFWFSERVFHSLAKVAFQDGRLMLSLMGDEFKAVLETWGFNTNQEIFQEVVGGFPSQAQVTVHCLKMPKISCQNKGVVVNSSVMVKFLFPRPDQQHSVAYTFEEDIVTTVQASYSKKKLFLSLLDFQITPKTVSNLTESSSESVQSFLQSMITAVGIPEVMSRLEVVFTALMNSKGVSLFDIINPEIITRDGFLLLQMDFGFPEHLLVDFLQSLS
Assay: In vitro CETP activity assay in human plasma
Type: biochemical
Conditions: CETP inhibition; Table 1 does not name the assay, it follows the human plasma assay; read-out: IC50 (nM), Inhibitory Activity of Compounds
Procedure: The cDNA of human pro-apoAI (NCBI accession number: NM_000039) is cloned from human liver Quick-Clone™ cDNA (Clontech, CA) and inserted to a pET28a vector (Novagen, Germany) for bacterial expression. Expressed protein as a fusion protein with 6×His-tag at N-terminus in BL-21 Gold (DE3) (Strategene, CA) is purified using HiTrap Chelating (GE Healthcare, CT).
Pro-apoAI containing microemulsion as a donor particle is prepared following previous reports (J. Biol. Chem., 280:14918-22). Glyceryl trioleate (62.5 ng, Sigma, Mo.), 3-sn-phosphatidylcholine (583 ng, Wako Pure Chemical Industries, Japan), and cholesteryl BODIPY® FL C12 (250 ng, Invitrogen, CA) are dissolved in 1 mL of chloroform. The solution is evaporated, then residual solvent is removed in vacuum for more than 1 hr. The dried lipid mixture is dissolved in 500 μL of the assay buffer (50 mM Tris-HCl (pH7.4) containing 150 mM NaCl and 2 mM EDTA) and sonicated at 50° C. with a microtip (MICROSON™ ULTRASONIC CELL DISRUPTOR, Misonix, Farmingdale, N.Y.) at output power 006 for 2 min. After sonication, the solution is cooled to 40° C., added to 100 μg of human pro-apoAI, and sonicated at output power 004 for 5 min at 40° C. The solution, BODIPY-CE microemulsion as a donor molecule is stored at 4° C. after filtration through a 0.45 μm PVDF filter.
Human EDTA plasma samples from healthy men are purchased from New Drug Development Research Center, Inc. Donor solution is prepared by a dilution of donor microemulsion with assay buffer. Human plasma (50 μL), assay buffer (35 μL) and test compound dissolved in dimethylsulfoxide (1 μL) are added to each well of 96 well half area black flat bottom plate. The reaction is started by the addition of donor solution (14 μL) into each well. Fluorescence intensities are measured every 30 min at 37° C. with excitation wave length of 485 nm and emission wavelength of 535 nm. The CETP activity (FI/min) is defined as the changes of fluorescence intensity from 30 to 90 min.

| IC50 | SMILES |
| --- | --- |
| 69 nM | CC[C@@H]1C[C@H](N(Cc2cc(C(F)(F)F)cc(C(F)(F)F)c2)c2ncc(-c3cnn(C)c3)cn2)C[C@H](CC)N1C(=O)O[C@H]1CC[C@H](C(=O)O)CC1 [Example 1-8] |
| 98 nM | C[C@@H]1C[C@H](N(Cc2cc(C(F)(F)F)cc(C(F)(F)F)c2)c2ncc(-c3cnn(C)c3)cn2)C[C@H](C)N1C(=O)O[C@H]1CC[C@H](C(=O)O)CC1 [Example 1-19] |
| 142 nM | CC[C@@H]1C[C@H](N(Cc2cc(C(F)(F)F)cc(C(F)(F)F)c2)c2ncc(-c3cnn(C)c3)cn2)C[C@H](CC)N1C(=O)[C@H]1CC[C@H](CC(=O)O)CC1 [Example 1-2] |
| 86 nM | CC[C@@H]1C[C@H](N(Cc2cc(C(F)(F)F)cc(C(F)(F)F)c2)c2ncc(-c3cnn(C)c3)cn2)C[C@H](CC)N1C(=O)O[C@H]1C[C@H](C(=O)O)C1 [Example 1-17] |
| 152 nM | CC[C@@H]1C[C@H](N(Cc2cc(C(F)(F)F)cc(C(F)(F)F)c2)c2ncc(-c3cnn(C)c3)cn2)C[C@H](CC)N1C(=O)O[C@H]1C[C@H](C(C)(C)C(=O)O)C1 [Example 1-27] |
| 135 nM | CC[C@@H]1C[C@H](N(Cc2cc(C(F)(F)F)cc(C(F)(F)F)c2)c2ncc(-c3cnn(C)c3)cn2)C[C@H](CC)N1C(=O)OCCCCC(=O)O [Example 1-5] |
| 91 nM | CC[C@@H]1C[C@H](N(Cc2cc(Cl)cc(Cl)c2)c2ncc(-c3cnn(C)c3)cn2)C[C@H](CC)N1C(=O)O[C@H]1CC[C@H](C(=O)O)CC1 [Example 1-20] |
| 63 nM | CC[C@@H]1C[C@H](N(Cc2cc(C(F)(F)F)cc(C(F)(F)F)c2)c2ncc(-c3cnn(C)c3)cn2)C[C@H](CC)N1C(=O)OCC(C)(C)CCC(=O)O [Example 1-11] |
| 68 nM | CC[C@@H]1C[C@H](N(Cc2cc(C(F)(F)F)cc(C(F)(F)F)c2)c2ncc(-c3cnn(C)c3)cn2)C[C@H](CC)N1C(=O)OCCCCC(N)=O [Example 4, cis-4-{[3,5-bis(trifluoromethyl)benzyl]-[5-(1-methyl-1H-pyrazol-4-yl)-pyrimidin-2-yl]-amino}-2,6-diethyl-piperidine-1-carboxylic acid 4-carbamoyl-butyl ester] |
| 99 nM | CC[C@@H]1C[C@H](N(Cc2cc(F)cc(C(F)(F)F)c2)c2ncc(-c3cnn(C)c3)cn2)C[C@H](CC)N1C(=O)O[C@H]1CC[C@H](C(=O)O)CC1 [Example 1-22] |
